{"source": "patent US9096853B2", "about": "“Modified siRNA molecules incorporating 5-fluoro-2′-deoxyuridine residues to enhance cytotoxicity” (U.S. Department of Veterans Affairs, priority 2012, dated 2015)", "key": {"[1]": {"system": "thymidylate synthase (TS) protein", "assay": "Immunoblot analysis of TS protein (free and ITC-bound), Odyssey quantitation", "type": "cell-based, human", "conditions": "RKO cells"}, "RKO cells": {"system": "RKO cells", "assay": "Flow cytometry, FITC Annexin V apoptosis detection", "type": "cell-based, human", "conditions": "ssiRNA 10 nM, after 72 hr", "description": "FIGS. 6A-B illustrate induction of apoptosis after transfection of FdU-containing ssiRNAs. RKO cells were transfected with various TS6 ssiRNAs (10 nM). After 6 hr, the medium was replaced with fresh medium. After 72 hr, cells were harvested, fixed, stained, and analyzed by flow cytometry as described in the Materials and Methods section. (A) Representative cytometry images from one experiment. Lower left quadrant represents viable cells; lower right quadrant, early apoptotic cells; upper right quadrant, late apoptotic cells; upper left quadrant, necrotic cells. (B) Percentage values represent the mean±S.D. from 3 separate experiments.\nRKO cells were plated in T-25 cm^2 flasks at a density of 2.5×10^5/flask. Cells were transfected on the following day with siRNA/LF2000 complexes for 6 hr. After medium replacement and additional incubation for 48 and 72 hr, respectively, cells were harvested, washed twice with PBS, resuspended in 1× binding buffer at a concentration of 1×10^6 cells/mL according to the manufacturer's protocol, stained with FITC Annexin V Apoptosis Detection Kit (BD Biosciences; San Jose, Calif.), and analyzed on the BD Accuri C6 Flow Cytometer (BD Accuri Cytometers Inc.; Ann Arbor, Mich.) at the UPCI Flow Cytometry Facility."}, "[2]": {"system": "p53, Fas, cleaved PARP, γH2AX, p-ATM", "assay": "Immunoblot of DNA damage and apoptosis signaling proteins, time course", "type": "cell-based, human", "conditions": "RKO cells, ssiRNA 10 nM, 0-72 hr", "description": "FIG. 5 illustrates time-dependent effects of FdU-containing ssiRNAs on protein expression. RKO cells were transfected with various TS6 ssiRNAs (10 nM). After 6 hr, the medium was replaced, and cells were harvested for immunoblot blot analysis at the following times: before39 transfection (pre) and 0, 24, 48, and 72 hr after transfection. Images shown are representative blots from at least 4 different experiments; and\n(§1) Protein concentrations of cell lysates were determined using the DC Protein Assay (Bio-Rad; Hercules, Calif.). Equal amounts of protein (30 μg) from each cell lysate were resolved on SDS-PAGE using the method of Laemmli (Reference 19) and transferred onto 0.45 μm nitrocellulose membranes (Bio-Rad). Membranes were blocked and incubated overnight with primary antibodies at 4° C. The following antibodies were used in the experiments: anti-TS (Clone 4H4B1; Invitrogen), anti-TS (#5449; Cell Signaling; San Francisco, Calif.), anti-p21 Waf1/Cip1 (#2947; Cell Signaling), anti-p53 (#sc-126; Santa Cruz Biotechnology; Santa Cruz, Calif.), anti-PARP (#9542; Cell Signaling), anti-Fas (#4233; Cell Signaling), anti-phospho-histone H2A.X (Ser139) (#2577; Cell Signaling), anti-histone H2A.X (#7631; Cell Signaling), anti-phospho-ATM (pS1981; EPITOMICS Inc.; Burlingame, Calif.), anti-ATM (#A1106; Sigma), and anti-α-tubulin (EMD Biosciences; San Diego, Calif.). After multiple TBST washes (1×TBS, 0.1% Tween-20), membranes were incubated with corresponding horseradish peroxidase-conjugated secondary antibodies (Bio-Rad) for 1 hr at room temperature. Proteins were detected by the enhanced chemiluminescence method (SuperSignal West Pico substrate; Pierce; Rockford, Ill.). Quantitation of signal intensities was performed by densitometry on a Xerox scanner using NIH IMAGEJ software."}, "[3]": {"system": "human colon cancer RKO cell line", "assay": "Cell proliferation assay (WST-1) in RKO cells", "type": "cell-based", "description": "RKO cells were plated in 96-well plates at a density of 800 cells/well. On the following day, cells were incubated with ssiRNA/LF2000 complexes for 6 hr, after which time, the growth medium was replaced, and cells were grown for an additional 96 hr. Similarly, RKO cells were treated with FdU (#F0503, Sigma) for 6 hr followed by medium replacement and then allowed to grow for an additional 96 hr. Cell proliferation/viability was quantified by the WST-1 assay (Roche; Indianapolis, Ind.)."}, "GC3/TK− cells": {"system": "GC3/TK− cells", "assay": "Cell proliferation (WST-1) in thymidine kinase-deficient GC3/TK− cells", "type": "cell-based, human", "conditions": "6 hr transfection, additional 5 days", "description": "FIGS. 2A-B illustrate the effect of TK knockdown on the cytotoxicity of the FdU-modified ssiRNA. (A) RKO cells were transfected with 1 nM TK siRNA (lanes 3 and 4) or Mis-dU/dA (lane 5). After 6 hr, the medium was replaced with fresh medium. On the following day, cells were transfected with TS6-FdU/dA ssiRNA (1 nM) for 6 hr (lanes 2, 4, and 5) after which time, cells were harvested for immunoblot analysis. RKO cells were treated with 5-fluorouracil (5 nM) for 6 hr before harvesting (lane 6). (B) GC3/TK− cells were transfected with various concentrations of TS6-dU/dA or TS6-FdU/dA ssiRNA. After 6 hr, the medium was replaced and after an additional 5 days, cell proliferation was determined with the WST-1 assay;\nThe human colon cancer RKO cell line, originally obtained from ATCC, has been previously well-characterized and was maintained in RPMI-1640 (Invitrogen; Carlsbad, Calif.) with 10% (v/v) dialyzed fetal bovine serum at 37° C. in a humidified incubator with 5% CO2 (Reference 11). The thymidine kinase-deficient GC3/TK− cells were a gift from Dr. Janet Houghton (Reference 18). Cells were routinely authenticated by morphology and growth curve analysis. […]\nRKO cells were plated in 96-well plates at a density of 800 cells/well. […] Cell proliferation/viability was quantified by the WST-1 assay (Roche; Indianapolis, Ind.)."}, "[4]": {"system": "human colon cancer RKO cell line", "assay": "Clonogenic assay in RKO cells", "type": "cell-based", "description": "RKO cells were plated in 6-well plates at a density of 600 cells/well. On the following day, cells were transfected with ssiRNA/LF2000 complexes for 6 hr after which time, the growth medium was replaced. Similarly, FdU was added to wells for 6 hr followed by medium replacement. After 8 days, cell colonies were fixed with Trypan blue solution (75% methanol/25% acetic acid/0.25% trypan blue), washed, and air-dried before counting colonies >50 cells."}, "[5]": {"system": "thymidylate synthase (TS) protein", "assay": "Immunoblot analysis of TS protein (free and ITC-bound), Odyssey quantitation", "type": "cell-based, human", "conditions": "RKO cells, ssiRNA 1 nM, 48 hr; normalized to free TS protein in mock-transfected cells (LF2000) set to 100%; mean ± S.D., 6 experiments", "description": "FIGS. 1A-B illustrate the effect of FdU incorporation in ssiRNA on TS protein expression. RKO cells were transfected with TS6 ssiRNAs (1 nM) containing various 3′-overhangs. After 6 hr, the medium was replaced. After an additional 48 hr, cells were harvested and processed for immunoblot and qPCR analysis as described in the Materials and Methods section. (A) Representative blot from 4 experiments. (B) All qPCR values represent the mean±S.D. from at least 3 separate experiments performed in triplicate. The normalized amount of TS mRNA from mock-transfected cells (LF2000) was set to 1.0 and all other values compared against that value. ITC, inhibitory ternary complex;\nCells were plated at a density of 1.5×10^5 cells/well. On the following day, ssiRNAs were complexed with Lipofectamine 2000 (LF2000, Invitrogen) in serum-free RPMI-1640 medium and added to the plated cells. After 48 hr, cells were rinsed with PBS and scraped in cell lysis buffer (10 mM Tris pH7.4, 150 mM NaCl, 1 mM EDTA, 1% IGEPAL, 0.5% sodium deoxycholate, and 0.1% SDS) containing freshly added Protease Inhibitor Cocktail (Sigma; St. Louis, Mo.), 1 mM phenylmethylsulfonyl fluoride, and phosphatase inhibitors (Sigma). Lysates were sonicated and then centrifuged at 14,000 rpm for 30 min at 4° C. to remove debris. Cell lysates were stored at −80° C. for future use. For mRNA analysis, total RNA was extracted using Trizol (Invitrogen) and stored at −80° C. for future use.\nas §1\nImmunoblots were prepared as described above. After incubation with anti-TS polyclonal antibody, membranes were blocked with the Odyssey blocking buffer and incubated with IRDye 800CW goat anti-rabbit antibody (LI-COR Biosciences; Lincoln, Nebr., USA) according to the manufacturer instructions. The fluorescent signal was detected and quantified using the Odyssey infrared imaging system (LI-COR)."}}, "note": "[5FU] = 5-fluorouracil base, with d sugar it is 5-fluoro-2'-deoxyuridine (FdU); d = 2'-deoxy (DNA); r = 2'-OH (RNA)"}
{"substance": "TS6-FdU/dA: TS-targeted ssiRNA, all 3′-end overhang dU of sense strand replaced with FdU (5 FdU); SEQ ID NO: 9 and 10 (chain 1 GGAUAUUGUCAGUCUUUAGGUUUUU; chain 2 CCUAAAGACUGACAAUAUCCAAAAA; chain 1: sugars from the 5' end r20 d5, [5FU] at 21, 22, 23, 24, 25, backbone not given here; chain 2: sugars from the 5' end r20 d5, backbone not given here)", "values": [{"measurement": "formation of the ITC after knockdown of thymidine kinase", "setting": "[1]; TK siRNA 1 nM, next day TS6-FdU/dA 1 nM for 6 hr", "result": "prevented formation of the ITC"}, {"measurement": "formation of the ITC immediately after transfection", "setting": "[1]; ssiRNA 10 nM, 0 hr after 6 hr transfection", "result": "formation of the ITC is observed"}, {"measurement": "early and late apoptotic cells", "setting": "RKO cells", "result": "significant increase"}, {"measurement": "biomarkers of DNA damage, γH2AX and p-ATM", "setting": "[2]", "result": "strongly induced"}, {"measurement": "cleaved PARP, a marker of apoptosis", "setting": "[2]", "result": "elevated"}, {"measurement": "p53 levels", "setting": "[2]", "result": "rapidly induced"}, {"measurement": "enhancement of IC50 versus non-targeted mismatch-FdU/dA, growth assay", "setting": "[3]", "result": 3.5, "unit": "fold"}, {"measurement": "IC50", "setting": "[3]; 6 hr exposure then 96 hr growth, mean ± S.D., at least 3 experiments", "result": 0.81, "unit": "nM"}, {"measurement": "IC50", "setting": "GC3/TK− cells", "result": "45.9 ± 18.6", "unit": "nM"}, {"measurement": "lower IC50 versus non-targeted mismatch-FdU/dA, clonogenic assay", "setting": "[4]", "result": 10, "unit": "fold"}, {"measurement": "IC50", "setting": "[4]; 6 hr exposure, colonies counted after 8 days, mean ± S.D., at least 3 experiments", "result": 0.17, "unit": "nM"}, {"measurement": "Free TS (%)", "setting": "[5]", "result": "29.8 ± 12.0", "unit": "%"}, {"measurement": "ITC-Bound TS (%)", "setting": "[5]", "result": "22.0 ± 11.8", "unit": "%"}]}
